Measured values: patent US10086077B2, “Activated macrophage targetable drug carrier for treatment of atherosclerosis and methods of preparing the same” (Korea University Research and Business Foundation, priority 2016, dated 2018)

Legend:
ApoE−/− mice [1] = test: In vivo imaging of carotid atherosclerotic plaque, general and in-vivo fluorescence microscope; settings: 14 mg/kg/week for four weeks, before vs after
Description: In order to evaluate a possibility of reducing inflammation and a size of the atherosclerotic plaque in vivo of the drug carrier encapsulated with the lobeglitazone, the drug carrier encapsulated with the lobeglitazone was administrated in mice (ApoE−/− mice) causing the atherosclerosis at a carotid branch.
More particularly, the ApoE −/− mice with the atherosclerosis are divided into three groups, and then in the first group, a drug carrier encapsulated with a mannose receptor-specific lobeglitazone was administrated (14 mg/kg/week), in the second group, the same quantity of lobeglitazone was orally administrated (14 mg/kg/week), and in the third group, a treating drug was not administrated. After the drug was administrated for four weeks, the same carotid branch portion was peeled and the size and the inflammation degree of the atherosclerotic plaque before and after treatment were observed and compared by a general microscope and an in-vivo fluorescence microscope.
Particularly, the effect of treating atherosclerosis was evaluated by comparing and analyzing an atherosclerotic size and an inflammation degree before administrating the drug and after administrating the drug for four weeks by administrating a glycol chitosan-based drug carrier (attached with a fluorescent material) capable of imaging an atherosclerotic plaque selectively bound to the mannose receptor over-expressed in the macrophage to an atherosclerotic model mouse and then peeling the carotid branch portion to image the carotid branch portion by an in-vivo fluorescence microscope.
In order to objectively quantify the inflammation degree expressed in the atherosclerotic plaque, a signal of autofluorescence or more of the atherosclerotic plaque measured in the Experimental Example 4 was extracted to quantify the range of signal expression and the degree of signal intensity.

ApoE−/− mice [2] = test: Histopathology of carotid atherosclerotic plaque: H&E, MAC3 and CD 206 staining; format: in vivo; settings: after four weeks (FIG. 9)
Method: Further, the effect of treating atherosclerosis of the drug carrier encapsulated with the lobeglitazone was evaluated by histopathologically analyzing the size of the atherosclerotic plaque reflecting the inflammation degree of the atherosclerotic plaque, distribution of the macrophages, and expression of mannose receptors in the macrophage. The atherosclerotic plaque of the carotid extracted from the arteriosclerosis model mouse was stained by H&E staining, MAC3 staining (macrophage staining), and CD 206 staining (macrophage mannose receptor staining).
FIG. 9 is a photograph illustrating sizes of atherosclerotic plaques by using H&E staining, MAC3 staining, and CD 206 staining in the group administered with the drug carrier according to an example embodiment, the group administered orally with lobeglitazone, and the group administered with no drug. FIG. 9 is a photograph illustrating an atherosclerotic plaque in the carotid extracted from the mouse by CD 206 staining (macrophage mannose receptor staining), MAC3 staining (macrophage staining), and H&E staining, before administrating the drug and after administrating the drug for four weeks, respectively, in a group (MMR-lobe) administrated with a glycol chitosan drug carrier encapsulated with lobeglitazone, a group (PO-Lobe) orally administrated with lobeglitazone, and a group (Control) administered with no drug, respectively.

## COc1ccc(Oc2cc(N(C)CCOc3ccc(CC4SC(=O)NC4=O)cc3)ncn2)cc1 (stereo not drawn) [lobeglitazone]
ApoE−/− mice [1]; images (FIGS. 5A-5C)
  inflammation degree of the atherosclerosis: not largely changed
  size of the atherosclerosis: not largely changed
ApoE−/− mice [1]; quantified (FIG. 6)
  fluorescence intensity expressed in the atherosclerotic plaque: no difference
ApoE−/− mice [2]; CD 206 staining
  CD 206 (macrophage mannose receptor staining): decreased
ApoE−/− mice [2]; H&E staining
  size of the atherosclerotic plaque: decreased
ApoE−/− mice [2]; MAC3 staining
  MAC3 (macrophage staining): decreased
